According to US20140256756A1, “PIPERIDINYL-SUBSTITUTED LACTAMS AS GPR119 MODULATORS” (Array BioPharma Inc., priority 2011, published 2014):

System: modified version of the GPR119 receptor (94% identity to human receptor)
Assay: cAMP production assay (LANCE cAMP kit, TR-FRET) in HEK-293 cells
Format: cell-based
Conditions: for cAMP production in HEK-293 cells: HEK-293 cells stably expressing modified GPR119, test compounds 0.2 nM to 10 μM, one-hour incubation; for Fold over baseline: increase in cAMP relative to basal levels, agonist activity if 1.5-fold or greater
In short: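 Doxycycline-induced HEK-293 cells expressing modified GPR119 exposed to compounds (0.2 nM to 10 μM, 0.5% DMSO) for one hour at ambient temperature in HBSS with HEPES and BSA. cAMP measured by TR-FRET competition and interpolated from a standard curve; agonism defined as ≥1.5-fold over basal.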

Compound	cAMP production in HEK-293 cells	Fold over baseline
CCS(=O)(=O)c1ccc(OC2CCN(C3CCN(c4nc(CC(C)C)ns4)CC3)C2=O)c(F)c1 (stereo not shown) [Example 68, 3-(4-(ethylsulfonyl)-2-fluorophenoxy)-1-(1-(3-isobutyl-1,2,4-thiadiazol-5-yl)piperidin-4-yl)pyrrolidin-2-one]	14.5 nmol	3.1
CS(=O)(=O)c1ccc(O[C@H]2CCN(C3CCN(c4nc(Br)ns4)CC3)C2=O)c(F)c1 [Example 69, (S)-1-(1-(3-bromo-1,2,4-thiadiazol-5-yl)piperidin-4-yl)-3-(2-fluoro-4-(methylsulfonyl)phenoxy)pyrrolidin-2-one]	10.6 nmol	2.1
CS(=O)(=O)c1ccc(O[C@H]2CCN(C3CCN(c4nc(-c5cnco5)ns4)CC3)C2=O)c(F)c1 [Example 70, (S)-3-(2-fluoro-4-(methylsulfonyl)phenoxy)-1-(1-(3-(oxazol-5-yl)-1,2,4-thiadiazol-5-yl)piperidin-4-yl)pyrrolidin-2-one]	11.4 nmol	3.1
Cc1ncccc1-c1nsc(N2CCC(N3CC[C@H](Oc4ccc(S(C)(=O)=O)cc4F)C3=O)CC2)n1 [Example 71, (S)-3-(2-fluoro-4-(methylsulfonyl)phenoxy)-1-(1-(3-(2-methylpyridin-3-yl)-1,2,4-thiadiazol-5-yl)piperidin-4-yl)pyrrolidin-2-one]	5.9 nmol	2.1
Cn1nccc1-c1nsc(N2CCC(N3CC[C@H](Oc4ccc(S(C)(=O)=O)cc4F)C3=O)CC2)n1 [Example 72, (S)-3-(2-fluoro-4-(methylsulfonyl)phenoxy)-1-(1-(3-(1-methyl-1H-pyrazol-5-yl)-1,2,4-thiadiazol-5-yl)piperidin-4-yl)pyrrolidin-2-one]	10.6 nmol	2.9
Cn1cc(-c2nsc(N3CCC(N4CC[C@H](Oc5ccc(S(C)(=O)=O)cc5F)C4=O)CC3)n2)cn1 [Example 73, (S)-3-(2-fluoro-4-(methylsulfonyl)phenoxy)-1-(1-(3-(1-methyl-1H-pyrazol-4-yl)-1,2,4-thiadiazol-5-yl)piperidin-4-yl)pyrrolidin-2-one]	6.2 nmol	2.2
CS(=O)(=O)c1ccc(O[C@H]2CCN(C3CCN(c4nc(Oc5ccccc5)ns4)CC3)C2=O)c(F)c1 [Example 74, (S)-3-(2-fluoro-4-(methylsulfonyl)phenoxy)-1-(1-(3-phenoxy-1,2,4-thiadiazol-5-yl)piperidin-4-yl)pyrrolidin-2-one]	15.3 nmol	4.2
Cc1nn(C)c(Oc2nsc(N3CCC(N4CC[C@H](Oc5ccc(S(C)(=O)=O)cc5F)C4=O)CC3)n2)c1C [Example 75, (S)-3-(2-fluoro-4-(methylsulfonyl)phenoxy)-1-(1-(3-(1,3,4-trimethyl-1H-pyrazol-5-yloxy)-1,2,4-thiadiazol-5-yl)piperidin-4-yl)pyrrolidin-2-one]	6.9 nmol	2.7
Cc1ncccc1Oc1nsc(N2CCC(N3CC[C@H](Oc4ccc(S(C)(=O)=O)cc4F)C3=O)CC2)n1 [Example 76, (S)-3-(2-fluoro-4-(methylsulfonyl)phenoxy)-1-(1-(3-(2-methylpyridin-3-yloxy)-1,2,4-thiadiazol-5-yl)piperidin-4-yl)pyrrolidin-2-one]	5.7 nmol	2.5
CC(C)c1nsc(N2CCC(N3CCC(Oc4ccc(C(=O)NCCO)cc4F)C3=O)CC2)n1.Cl (stereo not shown) [Example 77, 3-Fluoro-N-(2-hydroxyethyl)-4-(1-(1-(3-isopropyl-1,2,4-thiadiazol-5-yl)piperidin-4-yl)-2-oxopyrrolidin-3-yloxy)benzamide hydrochloride]	15.1 nmol	2.8
CC(C)c1nsc(N2CCC(N3CCC(Oc4ccc(C(=O)N(C)CCN(C)C)cc4F)C3=O)CC2)n1 (stereo not shown) [Example 78, N-(2-(dimethylamino)ethyl)-3-fluoro-4-(1-(1-(3-isopropyl-1,2,4-thiadiazol-5-yl)piperidin-4-yl)-2-oxopyrrolidin-3-yloxy)-N-methylbenzamide]	5.0 nmol	1.6
CC(C)c1nsc(N2CCC(N3CCC(Oc4ccc(C(=O)N(C)CCO)cc4F)C3=O)CC2)n1 (stereo not shown) [Example 79, 3-fluoro-N-(2-hydroxyethyl)-4-(1-(1-(3 isopropyl-1,2,4-thiadiazol-5-yl)piperidin-4-yl)-2-oxopyrrolidin-3-yloxy)-N-methylbenzamide]	19.0 nmol	3.2
CC(C)c1nsc(N2CCC(N3CCC(Oc4ccc(C(=O)N(C)CCN)cc4F)C3=O)CC2)n1 (stereo not shown) [Example 80, N-(2-aminoethyl)-3-fluoro-4-(1-(1-(3-isopropyl-1,2,4-thiadiazol-5-yl)piperidin-4-yl)-2-oxopyrrolidin-3-yloxy)-N-methylbenzamide]	16.1 nmol	2.8
CC(C)c1nsc(N2CCC(N3CCC(Oc4ccc(C(=O)NCCN(C)C)cc4F)C3=O)CC2)n1 (stereo not shown) [Example 81, N-(2-(dimethylamino)ethyl)-3 fluoro-4-(1-(1-(3-isopropyl-1,2,4-thiadiazol-5-yl)piperidin-4-yl)-2-oxopyrrolidin-3-yloxy)benzamide]	11.7 nmol	2.4
CC(C)c1nsc(N2CCC(N3CCC(Oc4ccc(-n5cnnn5)nc4)C3=O)CC2)n1 (stereo not shown) [Example 82, 3-(6-(1H-tetrazol-1-yl)pyridin-3-yloxy)-1-(1-(3-isopropyl-1,2,4-thiadiazol-5-yl)piperidin-4-yl)pyrrolidin-2-one]	12.8 nmol	2.4
CC(C)c1nsc(N2CCC(N3CCC(Oc4ccc(-c5nnn(C)n5)cc4)C3=O)CC2)n1 (stereo not shown) [Example 83, 1-(1-(3-isopropyl-1,2,4-thiadiazol-5-yl)piperidin-4-yl)-3-(4-(2-methyl-2H-tetrazol-5-yl)phenoxy)pyrrolidin-2-one]	14.9 nmol	2.5
CC(C)c1nsc(N2CCC(N3CCC(Oc4ccc(-n5cnnn5)cc4)C3=O)CC2)n1 (stereo not shown) [Example 84, 3-(4-(1H-tetrazol-1-yl)phenoxy)-1-(1-(3-isopropyl-1,2,4-thiadiazol-5-yl)piperidin-4-yl)pyrrolidin-2-one]	18.8 nmol	4.2
CC(C)c1nsc(N2CCC(N3CCCC(Oc4cc(F)c(S(C)(=O)=O)cc4F)C3=O)CC2)n1 (stereo not shown) [Example 85, 3-(2,5-Difluoro-4-(methylsulfonyl)phenoxy)-1′-(3-isopropyl-1,2,4-thiadiazol-5-yl)-[1,4′-bipiperidin]-2-one]	16.2 nmol	3.8
CS(=O)(=O)c1ccc(O[C@H]2CCN(C3CCN(c4nc(C(F)(F)F)ns4)CC3)C2=O)c(F)c1 [Example 86, (S)-3-(2-Fluoro-4-(methylsulfonyl)phenoxy)-1-(1-(3-(trifluoromethyl)-1,2,4-thiadiazol-5-yl)piperidin-4-yl)pyrrolidin-2-one]	11.1 nmol	3.4
CS(=O)(=O)c1ccc(N[C@H]2CCCN(C3CCN(c4nc(C(F)(F)F)ns4)CC3)C2=O)c(F)c1 [Example 87, (S)-3-(2-fluoro-4-(methylsulfonyl)phenylamino)-1′-(3-(trifluoromethyl)-1,2,4-thiadiazol-5-yl)-[1,4′-bipiperidin]-2-one]	13.6 nmol	2.1
CS(=O)(=O)c1cc(F)c(N[C@H]2CCN(C3CCN(c4nc(C(F)(F)F)ns4)CC3)C2=O)c(F)c1 [Example 88, (S)-3-(2,6-difluoro-4-(methylsulfonyl)phenylamino)-1-(1-(3-(trifluoromethyl)-1,2,4-thiadiazol-5-yl)piperidin-4-yl)pyrrolidin-2-one]	11.8 nmol	3.0
CS(=O)(=O)c1cc(F)c(N[C@H]2CCN(C3CCN(c4nc(C(F)(F)F)ns4)CC3)C2=O)cc1F [Example 89, (S)-3-(2,5-difluoro-4-(methylsulfonyl)phenylamino)-1-(1-(3-(trifluoromethyl)-1,2,4-thiadiazol-5-yl)piperidin-4-yl)pyrrolidin-2-one]	15.1 nmol	3.8
CS(=O)(=O)c1ccc(N[C@H]2CCN(C3CCN(c4nc(C(F)(F)F)ns4)CC3)C2=O)c(F)c1 [Example 90, (S)-3-(2-fluoro-4-(methylsulfonyl)phenylamino)-1-(1-(3-(trifluoromethyl)-1,2,4-thiadiazol-5-yl)piperidin-4-yl)pyrrolidin-2-one]	8.5 nmol	2.9
CS(=O)(=O)c1cc(F)c(O[C@H]2CCN(C3CCN(c4nc(C(F)(F)F)ns4)CC3)C2=O)cc1F [Example 91, (S)-3-(2,5-difluoro-4-(methylsulfonyl)phenoxy)-1-(1-(3-(trifluoromethyl)-1,2,4-thiadiazol-5-yl)piperidin-4-yl)pyrrolidin-2-one]	25.6 nmol	5.4
CC(C)c1nsc(N2CCC(N3CCC(Cc4ccc(S(C)(=O)=O)cc4)C3=O)CC2)n1 (stereo not shown) [Example 92, 1-(1-(3-isopropyl-1,2,4-thiadiazol-5-yl)piperidin-4-yl)-3-(4-(methylsulfonyl)benzyl)pyrrolidin-2-one]	18.4 nmol	2.8
CS(=O)(=O)c1cc(F)c(O[C@H]2CCCN(C3CCN(c4nc(C(F)(F)F)ns4)CC3)C2=O)cc1F [Example 93, (S)-3-(2,5-difluoro-4-(methylsulfonyl)phenoxy)-1′-(3-(trifluoromethyl)-1,2,4-thiadiazol-5-yl)-[1,4′-bipiperidin]-2-one]	9.0 nmol	2.9
